Test results published in patent publication US7087729B1, “Peptide conjugates for the stabilization of membrane proteins and interactions with biological membranes” (University Health Network, priority 1999, dated 2006).
Square brackets hold non-standard residues; d marks the D form. Peptide text beside a SMILES is read from it. * marks the point of attachment. X1 = CCCCCCCCCCCCCCCCCCCCCCCCCCCC(=O)*; Orn = NCCC[C@H](N)C(=O)O

Columns and labels:
[1] = Solubility of lipopeptide detergents in water; type: physicochemical
Experimental: The LPDs with chain lengths from 10 to 16 carbons are soluble in water to over 10 mM, and the LPDs with chain lengths from 18 to 24 carbons are soluble to over 1 mM. […] As a control, a reference molecule known as C-0 is made with the same peptide scaffold, but without the coupled lipids. […] Every batch of peptide is analyzed by MS to confirm the synthesis.

bacteriorhodopsin = biological target: T1, bacteriorhodopsin (Halobacterium salinarum, UniProt P02945); assay: Stabilization of detergent-solubilized bacteriorhodopsin after exchange of OG for LPD; absorption spectrum of supernatant during storage; parameters: species or system Halobacterium salinarium; details: stored in the dark at room temperature, spectra at 1 to 32 days, supernatant after 100,000xg
T1 construct: Purple membranes were isolated by overlaying 12.5 mL of the membrane suspension on a 40%/60% (10 mL/7.5 mL) sucrose gradient; made in house; host or cells: Halobacterium salinarium (strain a gift of J. Lanyi); protein isolated from purple membranes of the natural producer
T1 sequence (P02945 14-261 limits assumed): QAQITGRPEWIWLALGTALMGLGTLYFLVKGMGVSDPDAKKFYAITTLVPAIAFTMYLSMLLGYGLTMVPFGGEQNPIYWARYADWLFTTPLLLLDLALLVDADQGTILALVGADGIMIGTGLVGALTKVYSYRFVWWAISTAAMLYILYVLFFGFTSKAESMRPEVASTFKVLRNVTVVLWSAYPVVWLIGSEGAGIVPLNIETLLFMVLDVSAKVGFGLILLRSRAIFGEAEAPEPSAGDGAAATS
Experimental: The purple membranes were homogenized in 25 mM sodium phosphate, pH 6.9 with 1.5% OG (Anatrace, Maumee, Ohio) and mixed for 36 hours in the dark. After adjusting the pH to 5.5 with 0.1 N HCl, the solution was spun at 200,000×g for 45 minutes to obtain the soluble bacterioprhodopsin (BR) in the supernatant. The protein was concentrated to 5 mg/mL by ultrafiltration with an Amicon PM 10 membrane. BR was further purified from this solution by chromatography on a Superdex 75 gel filtration column in 25 mM sodium phosphate, pH 5.5, 1.2% (w/v) OG, at a flow rate of 1 mL/min.
Typically, the initial concentration of OG in the purified BR sample was approximately 50 mM, which is roughly twice the critical micelle concentration for this detergent.

[2] = cited from earlier work

solubility in water (in words) [1]	Compound	preservation of the native bacteriorhodopsin absorption spectrum over storage time (bacteriorhodopsin)	preservation of the native bacteriorhodopsin absorption spectrum over storage time (bacteriorhodopsin; listed as octyl glucoside (OG))	solubility in water [2]
poorly soluble in water	CCCCCCCCCCCCCCCCCCCCCCCCCCCC(=O)NCCC[C@H](NC(=O)[C@H](C)NC(=O)[C@H](CCCCN)NC(=O)[C@H](C)NC(=O)[C@H](C)NC(=O)[C@H](CCCCN)NC(=O)[C@H](CCC(=O)O)NC(=O)[C@H](C)NC(=O)[C@H](C)NC(=O)[C@H](CCC(=O)O)NC(=O)[C@H](C)NC(=O)[C@H](C)NC(=O)[C@H](Cc1ccc(O)cc1)NC(=O)[C@H](CCCCN)NC(=O)[C@H](C)NC(=O)[C@H](C)NC(=O)[C@H](CCCCN)NC(=O)[C@H](CCC(=O)O)NC(=O)[C@H](C)NC(=O)[C@H](C)NC(=O)[C@H](CCC(=O)O)NC(=O)[C@H](C)NC(=O)[C@H](CCCNC(=O)CCCCCCCCCCCCCCCCCCCCCCCCCCC)NC(=O)[C@H](C)NC(C)=O)C(=O)N[C@@H](C)C(N)=O [LPD-28] (Ac-A[Orn](X1)AEAAEKAAKYAAEAAEKAAKA[Orn](X1)A-NH2)			
	CCCCCCCCO[C@@H]1O[C@H](CO)[C@@H](O)[C@H](O)[C@H]1O [OG, octyl β-D-glucopyranoside]	lost the characteristic spectum for native bacteriorhodopsin within a few days	loss of the native conformation of the protein over time	greater than 20 % (w/v)
	CCCCCCCCCCO[C@@H]1O[C@H](CO)[C@@H](O)[C@H](O)[C@H]1O [decyl glucoside]			0.1 % (w/v)
	CCCCCCCCCCCCO[C@@H]1O[C@H](CO)[C@@H](O)[C@H](O)[C@H]1O [dodecyl glucoside]			0.008 % (w/v)
